Article PMC9465641 (Frontiers in Pharmacology, 2022)
Counter-ions that a name gives are not always drawn. Like-named read-outs stand apart in the source and are kept apart here. Positions of bridges follow the written chain, without caps; N, C: chain ends. Non-standard residues stand in square brackets, D forms with d. Residues, ends and D or L forms follow the SMILES beside them. *: point of attachment. X1 = CC[C@H](C)CCCCC(=O)*; Dab = NCC[C@H](N)C(=O)O

Columns and labels:
[1] = Population pharmacokinetic modeling of intravenous colistin sulfate (plasma LC-MS/MS, Phoenix NLME); format: in vivo, human
Method: This study was conducted at the Third Xiangya Hospital of Central South University between May 2021 and April 2022. The design of this research fully conformed to the principles of the Helsinki Accords, and the study protocol was approved by the Research Ethics Committee of the Third Xiangya Hospital of Central South University (No: 2021-S396). Written informed consent was obtained from all patients or their legal representatives.
(§1) Colistin sulfate treatment was at the discretion of their medical teams. […] Colistin sulfate was routinely subjected to therapeutic drug monitoring (TDM) in our hospital. […] Other blood samples were collected randomly from residual blood of blood gas analysis or routine blood tests. In addition, urine samples from 6 patients with catheters in the intensive care unit were collected and recorded across a dosage interval (0–12 h after dosing) after 72 h of therapy. All samples were centrifuged for 10 min (4,000 ×g), and the supernatant was immediately collected and stored at −80°C pending analysis.
(§2) Colistin A and colistin B in plasma and urinary samples were quantified using a validated ultraperformance liquid chromatography tandem mass spectrometry (LC-MS/MS) assay. Briefly, samples were pretreated with acetonitrile, and 1 μL supernatant was injected into the LC-MS/MS instrument for analysis. A Waters XBridge BEH HILIC (4.6 × 150 mm, 2.5 μm) column was used. The mobile phase, consisting of eluents A (0.1% formic acid in water, vol/vol) and B (methanol), was delivered at a flow of 0.5 ml/min. Analysis of independently prepared quality control samples indicated good reproducibility (coefficients of variation ≤12.57%), and accuracy ranged from 88.52% to 109.43%. The limit of quantification was 0.034 mg/L for colistin A and 0.059 mg/L for colistin B. Since colistin A and B had similar structures, molecular weights and pharmacokinetic characteristics, the concentrations of colistin A and B were added together and referred to as colistin ([Li et al., 2003]; [Couet et al., 2011]).
Population PK analysis was performed using a non-linear mixed-effect modeling with the Phoenix® NLME software (version 8.3.4, Certara L.P. United States). The first-order conditional estimation-extended least-squares (FOCE-ELS) method was used to develop the PPK model. One- and two-compartment models with linear elimination were compared based on Akaike information criteria (AIC) and Bayesian information criterion (BIC). The inter-individual variability of PK parameters was assumed to follow a log-normal distribution and described using an exponential model, and residual variability was described by an additive, proportional, or combined error model. The coefficient of variation (CV%), goodness-of-fit plots, and the likelihood ratio test (-2 loglikelihood; -2LL) were used to evaluate the model.
Then, a stepwise covariate modeling (SCM) method was used to explore candidate covariates on PK parameters, including age, sex, weight, ALT, AST, TBIL, DBIL, TBA, TP, ALB, UA, BUN, CrCL, WBC, NEUT, HGB, RBC, HCT, PLT, PT, TT, APTT, PA, FIB, CRP, PCT, LAC, and 24-h urine volume, where continuous covariates (e.g., age) were modeled by using the power function and categorical covariates (e.g., sex) were described by an exponential function. By comparing with the base model, a drop in objective function value (OFV) > 3.84 (p < 0.05, df = 1) during forward selection steps and an increase of OFV >6.63 (p < 0.01, df = 1) in backward elimination steps were the inclusion criteria for covariates.
Finally, the reliability of the final model was evaluated by goodness-of-fit plots. Additionally, the performance of the final model was assessed by a prediction-corrected visual predictive check (pcVPC) of 1,000 replicates using Monte Carlo simulations, and a bootstrap analysis with 1,000 samples was conducted to evaluate the model stability.

[2] = Urinary excretion and renal clearance of colistin sulfate; format: in vivo, human
Method: as §1, §2
The renal clearance (CLR) of colistin was calculated as the ratio of the amount recovered in urine to the area under the plasma concentration-time curve (AUC) during the same period ([Sandri et al., 2013]). The percentage of colistin sulfate excreted in urine was defined as the amount of colistin recovered in urine divided by the dose administered. The fraction of renal clearance was estimated by CLR divided by total body clearance (CL) ([Li et al., 2003]).

A. baumannii = experiment: MIC for colistin of causative pathogen; format: cell-based; conditions: AB
K. pneumoniae = experiment: MIC for colistin of causative pathogen; format: cell-based; conditions: isolate of patient 2; KP
[3] = parameters: method as in Li et al., 2003; conditions: Sprague-Dawley rats; ref Li et al., 2003; cited from earlier work
[4] = parameters: method as in Al-Khayyat and Aronson, 1973; conditions: dogs; ref Al-Khayyat and Aronson, 1973; cited from earlier work

Compound: CC[C@H](C)CCCCC(=O)N[C@@H](CCN)C(=O)N[C@H](C(=O)N[C@@H](CCN)C(=O)N[C@H]1CCNC(=O)[C@H]([C@@H](C)O)NC(=O)[C@H](CCN)NC(=O)[C@H](CCN)NC(=O)[C@H](CC(C)C)NC(=O)[C@@H](CC(C)C)NC(=O)[C@H](CCN)NC1=O)[C@@H](C)O [colistin sulfate] (X1-[Dab]T[Dab][Dab][Dab][dL]L[Dab][Dab]T; lactam 4-C)
- dV2dALT, exponential parameter coefficient of ALT to V2, final model estimate ([1]; PPK model, n = 20): 0.635
- dCLdCrCL, bootstrap median ([1]; bootstrap with 1,000 samples): 0.373
- dV2dALT, bootstrap median ([1]; bootstrap with 1,000 samples): 0.633
- tvCL2, bootstrap median ([1]; bootstrap with 1,000 samples): 1.78 L/h
- tvCL, bootstrap median ([1]; bootstrap with 1,000 samples): 1.46 L/h
- tvV2, bootstrap median ([1]; bootstrap with 1,000 samples): 53.8 L
- tvV, bootstrap median ([1]; bootstrap with 1,000 samples): 16.2 L
- tvV, typical value of volume of central compartment distribution (V), final model estimate ([1]; critically ill patients, iv, n = 20, 98 plasma concentrations, two-compartment PPK model): 16.1 L
- tvCL2, typical value of inter-compartmental clearance (CL2), final model estimate ([1]; critically ill patients, iv, n = 20, two-compartment PPK model): 1.71 L/h
- tvV2, typical value of volume of peripheral compartment distribution (V2), final model estimate ([1]; critically ill patients, iv, n = 20, two-compartment PPK model, at ALT 37): 50.5 L
- tvCL, typical value of central compartment clearance (CL), final model estimate ([1]; critically ill patients, iv, n = 20, two-compartment PPK model, at CrCL 57.5): 1.50 L/h
- CL, median ([1]; six patients with urine samples, median): 1.519 L/h
- dose excreted ([2]; human, iv, six patients, 41 urine samples, 0-12 h dosage interval after 72 h of therapy, median, read-out: percentage of colistin dose excreted in urine, median): 10.1%
- CLR ([2]; patient 1, 1.0 MU q12h): 0.133 L/h
- CLR/CL ([2]; patient 1, 1.0 MU q12h): 9.15%
- CLR ([2]; patient 2, 1.0 MU q12h): 0.405 L/h
- CLR/CL ([2]; patient 2, 1.0 MU q12h): 15.58%
- CLR ([2]; patient 3, 0.75 MU q12h): 0.108 L/h
- CLR/CL ([2]; patient 3, 0.75 MU q12h): 2.52%
- CLR ([2]; patient 5, 0.75 MU q12h): 0.284 L/h
- CLR/CL ([2]; patient 5, 0.75 MU q12h): 17.95%
- CLR ([2]; patient 7, 0.75 MU q12h): 0.053 L/h
- CLR/CL ([2]; patient 7, 0.75 MU q12h): 4.64%
- CLR ([2]; patient 8, 0.75 MU q12h): 0.767 L/h
- 12-hour urinary excretion of colistin, median ([2]; six patients, median): 4.149 mg
- CLR as percentage of CL (CLR/CL), median ([2]; six patients, median): 12.37%
- renal clearance (CLR), median ([2]; six patients, median): 0.209 L/h
- MIC (A. baumannii; isolate of patient 8): 2 µg/mL
- MIC (A. baumannii; isolate of patient 18): 0.5 µg/mL
- MIC (A. baumannii; isolate of patient 19): 0.5 µg/mL
- MIC (K. pneumoniae): 0.5 µg/mL
- dose recovered from urine [3]: 0.18 ± 0.14%
- dose recovered from urine [4]: 0.13 ± 0.09%
